In ChEMBL document CHEMBL3526057 (Drug Metab Dispos, 2011):

Tests used:
Type in all cases: ADME
Cytochrome P450 2C19 [1] = target: T1, Cytochrome P450 2C19 (Homo sapiens, UniProt P33261, R150H); assay: Activity of human recombinant CYP2C19.11 mutant expressed in Saccharomyces cerevisiae BJ5457 assessed as omeprazole 5'-hydroxylation per pmol protein at 100 uM after 60 mins; conditions: recombinant enzyme, 1 h
Cytochrome P450 2C19 [2] = target: Cytochrome P450 2C19 (Homo sapiens, UniProt P33261, V331I/R442C); assay: Activity of human recombinant CYP2C19.16 mutant expressed in Saccharomyces cerevisiae BJ5457 assessed as omeprazole 5'-hydroxylation per pmol protein at 5 uM after 60 mins; conditions: recombinant enzyme, 1 h
Cytochrome P450 2C19 [3] = target: T2, Cytochrome P450 2C19 (Homo sapiens, UniProt P33261, A161P); assay: Activity of human recombinant CYP2C19 A161P mutant expressed in Saccharomyces cerevisiae BJ5457 assessed as intrinisic clearance foromeprazole 5'-hydroxylation per pmol protein after 60 mins; conditions: recombinant enzyme, 1 h
Cytochrome P450 2C19 [4] = target: T1, Cytochrome P450 2C19; assay: Activity of human recombinant CYP2C19.11 mutant expressed in Saccharomyces cerevisiae BJ5457 assessed asomeprazole 5'-hydroxylation per pmol protein after 60 mins; conditions: recombinant enzyme, 1 h
Cytochrome P450 2C19 [5] = target: T3, Cytochrome P450 2C19 (Homo sapiens, UniProt P33261, I19L); assay: Activity of human recombinant CYP2C19.15 mutant expressed in Saccharomyces cerevisiae BJ5457 assessed as omeprazole 5'-hydroxylation per pmol protein at 5 uM after 60 mins; conditions: recombinant enzyme, 1 h
Cytochrome P450 2C19 [6] = target: Cytochrome P450 2C19 (Homo sapiens, UniProt P33261, R144H); assay: Activity of human recombinant CYP2C19.9 mutant expressed in Saccharomyces cerevisiae BJ5457 assessed as omeprazole 5'-hydroxylation per pmol protein at 100 uM after 60 mins; conditions: recombinant enzyme, 1 h
Cytochrome P450 2C19 [7] = target: T4, Cytochrome P450 2C19 (Homo sapiens, UniProt P33261, E122A); assay: Activity of human recombinant CYP2C19 E122A mutant expressed in Saccharomyces cerevisiae BJ5457 assessed asomeprazole 5'-hydroxylation after 60 mins; conditions: recombinant enzyme, 1 h
Cytochrome P450 2C19 [8] = target: Cytochrome P450 2C19 (Homo sapiens, UniProt P33261, R410C); assay: Activity of human recombinant CYP2C19.13 mutant expressed in Saccharomyces cerevisiae BJ5457 assessed asomeprazole 5'-hydroxylation per pmol protein after 60 mins; conditions: recombinant enzyme, 1 h
[9] = target: CYP2C19.19 (CYP2C19 variant) (Homo sapiens, UniProt P33261, S51G); assay: Activity of human recombinant CYP2C19.19 mutant expressed in Saccharomyces cerevisiae BJ5457 assessed asomeprazole 5'-hydroxylation after 60 mins; conditions: probe omeprazole (5'-hydroxylation)
Cytochrome P450 2C19 [10] = target: Cytochrome P450 2C19 (Homo sapiens, UniProt P33261, E92D); assay: Activity of human recombinant CYP2C19 E92D mutant expressed in Saccharomyces cerevisiae BJ5457 assessed as intrinisic clearance foromeprazole 5'-hydroxylation per pmol protein after 60 mins; conditions: recombinant enzyme, 1 h
Cytochrome P450 2C19 [11] = target: T5, Cytochrome P450 2C19 (Homo sapiens, UniProt P33261, F168L); assay: Activity of human recombinant CYP2C19 F168L mutant expressed in Saccharomyces cerevisiae BJ5457 assessed as omeprazole 5'-hydroxylation per pmol protein at 5 uM after 60 mins; conditions: recombinant enzyme, 1 h
Cytochrome P450 2C19 [12] = target: T4, Cytochrome P450 2C19; assay: Activity of human recombinant CYP2C19 E122A mutant expressed in Saccharomyces cerevisiae BJ5457 assessed as omeprazole 5'-hydroxylation per pmol protein at 100 uM after 60 mins; conditions: recombinant enzyme, 1 h
Cytochrome P450 2C19 [13] = target: T3, Cytochrome P450 2C19; assay: Activity of human recombinant CYP2C19.15 mutant expressed in Saccharomyces cerevisiae BJ5457 assessed as intrinisic clearance foromeprazole 5'-hydroxylation per pmol protein after 60 mins; conditions: recombinant enzyme, 1 h
Cytochrome P450 2C19 [14] = target: T5, Cytochrome P450 2C19; assay: Activity of human recombinant CYP2C19 F168L mutant expressed in Saccharomyces cerevisiae BJ5457 assessed asomeprazole 5'-hydroxylation after 60 mins; conditions: recombinant enzyme, 1 h
Cytochrome P450 2C19 [15] = target: Cytochrome P450 2C19 (Homo sapiens, UniProt P33261, M74T); assay: Activity of human recombinant CYP2C19 M74T mutant expressed in Saccharomyces cerevisiae BJ5457 assessed asomeprazole 5'-hydroxylation after 60 mins; conditions: recombinant enzyme, 1 h
Cytochrome P450 2C19 [16] = target: T4, Cytochrome P450 2C19; assay: Activity of human recombinant CYP2C19 E122A mutant expressed in Saccharomyces cerevisiae BJ5457 assessed asomeprazole 5'-hydroxylation per pmol protein after 60 mins; conditions: recombinant enzyme, 1 h
Cytochrome P450 2C19 [17] = target: T6, Cytochrome P450 2C19 (Homo sapiens, UniProt P33261); assay: Activity of human recombinant CYP2C19.1A mutant expressed in Saccharomyces cerevisiae BJ5457 assessed asomeprazole 5'-hydroxylation per pmol protein after 60 mins; conditions: recombinant enzyme, 1 h
Cytochrome P450 2C19 [18] = target: T7, Cytochrome P450 2C19 (Homo sapiens, UniProt P33261, S51G); assay: Activity of human recombinant CYP2C19.19 mutant expressed in Saccharomyces cerevisiae BJ5457 assessed as omeprazole 5'-hydroxylation per pmol protein at 100 uM after 60 mins; conditions: recombinant enzyme, 1 h
Cytochrome P450 2C19 [19] = target: T1, Cytochrome P450 2C19; assay: Activity of human recombinant CYP2C19.11 mutant expressed in Saccharomyces cerevisiae BJ5457 assessed asomeprazole 5'-hydroxylation after 60 mins; conditions: recombinant enzyme, 1 h
[20] = target: CYP2C19.14 (CYP2C19 variant) (Homo sapiens, UniProt P33261, L17P); assay: Activity of human recombinant CYP2C19.14 mutant expressed in Saccharomyces cerevisiae BJ5457 assessed asomeprazole 5'-hydroxylation after 60 mins; conditions: probe omeprazole (5'-hydroxylation)
Cytochrome P450 2C19 [21] = target: T7, Cytochrome P450 2C19; assay: Activity of human recombinant CYP2C19.19 mutant expressed in Saccharomyces cerevisiae BJ5457 assessed as omeprazole 5'-hydroxylation per pmol protein at 5 uM after 60 mins; conditions: recombinant enzyme, 1 h
Cytochrome P450 2C19 [22] = target: Cytochrome P450 2C19 (Homo sapiens, UniProt P33261, L17P); assay: Activity of human recombinant CYP2C19.14 mutant expressed in Saccharomyces cerevisiae BJ5457 assessed as omeprazole 5'-hydroxylation per pmol protein at 100 uM after 60 mins; conditions: recombinant enzyme, 1 h
Cytochrome P450 2C19 [23] = target: T2, Cytochrome P450 2C19; assay: Activity of human recombinant CYP2C19 A161P mutant expressed in Saccharomyces cerevisiae BJ5457 assessed asomeprazole 5'-hydroxylation per pmol protein after 60 mins; conditions: recombinant enzyme, 1 h
Cytochrome P450 2C19 [24] = target: Cytochrome P450 2C19 (Homo sapiens, UniProt P33261, R329H); assay: Activity of human recombinant CYP2C19.18 mutant expressed in Saccharomyces cerevisiae BJ5457 assessed as omeprazole 5'-hydroxylation per pmol protein at 5 uM after 60 mins; conditions: recombinant enzyme, 1 h
Cytochrome P450 2C19 [25] = target: T5, Cytochrome P450 2C19; assay: Activity of human recombinant CYP2C19 F168L mutant expressed in Saccharomyces cerevisiae BJ5457 assessed asomeprazole 5'-hydroxylation per pmol protein after 60 mins; conditions: recombinant enzyme, 1 h
Cytochrome P450 2C19 [26] = target: T6, Cytochrome P450 2C19; assay: Activity of human recombinant CYP2C19.8 mutant expressed in Saccharomyces cerevisiae BJ5457 assessed as omeprazole 5'-hydroxylation per pmol protein at 100 uM after 60 mins; conditions: recombinant enzyme, 1 h
Cytochrome P450 2C19 [27] = target: T6, Cytochrome P450 2C19; assay: Activity of human recombinant CYP2C19.1B mutant expressed in Saccharomyces cerevisiae BJ5457 assessed asomeprazole 5'-hydroxylation per pmol protein after 60 mins; conditions: recombinant enzyme, 1 h
Cytochrome P450 2C19 [28] = target: T7, Cytochrome P450 2C19; assay: Activity of human recombinant CYP2C19.19 mutant expressed in Saccharomyces cerevisiae BJ5457 assessed as intrinisic clearance foromeprazole 5'-hydroxylation per pmol protein after 60 mins; conditions: recombinant enzyme, 1 h
Cytochrome P450 2C19 [29] = target: T6, Cytochrome P450 2C19; assay: Activity of human recombinant CYP2C19.1B mutant expressed in Saccharomyces cerevisiae BJ5457 assessed as omeprazole 5'-hydroxylation per pmol protein at 100 uM after 60 mins; conditions: recombinant enzyme, 1 h
Cytochrome P450 2C19 [30] = target: Cytochrome P450 2C19 (Homo sapiens, UniProt P33261, P227L); assay: Activity of human recombinant CYP2C19.10 mutant expressed in Saccharomyces cerevisiae BJ5457 assessed asomeprazole 5'-hydroxylation per pmol protein after 60 mins; conditions: recombinant enzyme, 1 h
Cytochrome P450 2C19 [31] = target: T6, Cytochrome P450 2C19; assay: Activity of human recombinant CYP2C19.1A mutant expressed in Saccharomyces cerevisiae BJ5457 assessed as intrinisic clearance foromeprazole 5'-hydroxylation per pmol protein after 60 mins; conditions: recombinant enzyme, 1 h

**Q.** COc1ccc2[nH]c([S+]([O-])Cc3ncc(C)c(OC)c3C)nc2c1 (stereo unspecified) [OMEPRAZOLE] was tested. Which Drug metabolism (Cytochrome P450 2C19 [1]) did it give?
**A.** 6.38 pmol/min

**Q.** What about the Drug metabolism (Cytochrome P450 2C19 [2]) of the same molecule?
**A.** 0.65 pmol/min

**Q.** What about the CL (Cytochrome P450 2C19 [3]) of the same molecule?
**A.** 0.24 µL/min

**Q.** What about the Vmax (Cytochrome P450 2C19 [4]) of the same molecule?
**A.** 8.34 pmol/min

**Q.** What about the Drug metabolism (Cytochrome P450 2C19 [5]) of the same molecule?
**A.** 3.41 pmol/min

**Q.** And the Drug metabolism (Cytochrome P450 2C19 [6])?
**A.** 5.48 pmol/min

**Q.** And the Km (Cytochrome P450 2C19 [7])?
**A.** 12.3 µM

**Q.** And the Vmax (Cytochrome P450 2C19 [8])?
**A.** 7.83 pmol/min

**Q.** What about the Km at 1 h [9] of the same molecule?
**A.** 14.5 µM

**Q.** What about the CL (Cytochrome P450 2C19 [10]) of the same molecule?
**A.** 0.79 µL/min

**Q.** What about the Drug metabolism (Cytochrome P450 2C19 [11]) of the same molecule?
**A.** 3.08 pmol/min

**Q.** And the Drug metabolism (Cytochrome P450 2C19 [12])?
**A.** 4.71 pmol/min

**Q.** What about the CL (Cytochrome P450 2C19 [13]) of the same molecule?
**A.** 1.21 µL/min

**Q.** What about the Km (Cytochrome P450 2C19 [14]) of the same molecule?
**A.** 6.56 µM

**Q.** And the Km (Cytochrome P450 2C19 [15])?
**A.** 3.62 µM

**Q.** And the Vmax (Cytochrome P450 2C19 [16])?
**A.** 4.89 pmol/min

**Q.** What about the Vmax (Cytochrome P450 2C19 [17]) of the same molecule?
**A.** 7.97 pmol/min

**Q.** And the Drug metabolism (Cytochrome P450 2C19 [18])?
**A.** 8.65 pmol/min

**Q.** And the Km (Cytochrome P450 2C19 [19])?
**A.** 4.91 µM

**Q.** What about the Km at 1 h [20] of the same molecule?
**A.** 4.3 µM

**Q.** What about the Drug metabolism (Cytochrome P450 2C19 [21]) of the same molecule?
**A.** 2.82 pmol/min

**Q.** What about the Drug metabolism (Cytochrome P450 2C19 [22]) of the same molecule?
**A.** 8.25 pmol/min

**Q.** And the Vmax (Cytochrome P450 2C19 [23])?
**A.** 1.61 pmol/min

**Q.** And the Drug metabolism (Cytochrome P450 2C19 [24])?
**A.** 2.21 pmol/min

**Q.** And the Vmax (Cytochrome P450 2C19 [25])?
**A.** 6.05 pmol/min

**Q.** And the Drug metabolism (Cytochrome P450 2C19 [26])?
**A.** 0.72 pmol/min

**Q.** And the Vmax (Cytochrome P450 2C19 [27])?
**A.** 5.12 pmol/min

**Q.** And the CL (Cytochrome P450 2C19 [28])?
**A.** 0.66 µL/min

**Q.** And the Drug metabolism (Cytochrome P450 2C19 [29])?
**A.** 5.36 pmol/min

**Q.** And the Vmax (Cytochrome P450 2C19 [30])?
**A.** 5.35 pmol/min

**Q.** And the CL (Cytochrome P450 2C19 [31])?
**A.** 1.49 µL/min
